# Key:
# [1] = Hydrolysis of (pro-)drugs in nanobiologics; format: physicochemical; details: 4° C. in PBS
# Protocol: (Pro-)drug recovery and hydrolysis were determined using the following procedure: an aliquot (200 μL) of the particle solution was dried under vacuum, acetonitrile (600 μL) was added and the suspension was sonicated for 20 minutes. The suspension was centrifuged to precipitate any solids and the remaining solution was analyzed using HPLC; except for the malonate derivatives which were analyzed using SFC-MS, and Dimethylmalonate which was analyzed by GC-MS.
# [2] = Toxicity in transplant recipients (BUN, serum creatinine, histopathology); format: in vivo, mice; details: regimens giving 100% allograft survival for 30 days
# heart allograft = assay: Cardiac allograft survival (BALB/c hearts into C57BL/6 recipients); format: in vivo, mice; details: oral, 5 mg/kg every day for 15 days
Compound,hydrolysis of the (pro-)drug in the nanobiologic over time [1],blood urea nitrogen (BUN) and serum creatinine [2],allograft survival for 30 days (heart allograft)
"CCCCCCCCCCCCCCCCCC(=O)O[C@@H]1CC[C@@H](C[C@@H](C)[C@@H]2CC(=O)[C@H](C)/C=C(\C)[C@@H](O)[C@@H](OC)C(=O)[C@H](C)C[C@H](C)/C=C/C=C/C=C(\C)[C@@H](OC)C[C@@H]3CC[C@@H](C)[C@@](O)(O3)C(=O)C(=O)N3CCCC[C@H]3C(=O)O2)C[C@H]1OC [Cis-Rapamycin, Rapamycin-C18]",hydrolysis was observed,–,–
"CO[C@H]1C[C@@H]2CC[C@@H](C)[C@@](O)(O2)C(=O)C(=O)N2CCCC[C@H]2C(=O)O[C@H]([C@H](C)C[C@@H]2CC[C@@H](O)[C@H](OC)C2)CC(=O)[C@H](C)/C=C(\C)[C@@H](O)[C@@H](OC)C(=O)[C@H](C)C[C@H](C)/C=C/C=C/C=C/1C [Rapamycin, rapamycin]",–,kidney toxicity parameters show statistical differences between oral rapamycin and mTORi-HDL,100%

# Source: patent US20200376146A1, “NANOBIOLOGIC COMPOSITIONS FOR INHIBITING TRAINED IMMUNITY” (ICAHN SCHOOL OF MEDICINE, priority 2017, published 2020)
